# Measurements reported in PMC10447267, “Assessment of the potential of the MET inhibitor tepotinib to affect the pharmacokinetics of CYP3A4 and P-gp substrates” (Investigational New Drugs, 2023).
# pIC50, pKi: −log10 of the molar value. Like-named read-outs stand apart in the source and are kept apart here.
# Experiments:
# CYP2C8 = target: T1, CYP2C8 (Homo sapiens, UniProt P10632); assay: CYP2C8 inhibition in pooled human liver microsomes; format: in vitro ADME; settings: Amodiaquine N-dealkylation
# T1 sequence (P10632 1-490): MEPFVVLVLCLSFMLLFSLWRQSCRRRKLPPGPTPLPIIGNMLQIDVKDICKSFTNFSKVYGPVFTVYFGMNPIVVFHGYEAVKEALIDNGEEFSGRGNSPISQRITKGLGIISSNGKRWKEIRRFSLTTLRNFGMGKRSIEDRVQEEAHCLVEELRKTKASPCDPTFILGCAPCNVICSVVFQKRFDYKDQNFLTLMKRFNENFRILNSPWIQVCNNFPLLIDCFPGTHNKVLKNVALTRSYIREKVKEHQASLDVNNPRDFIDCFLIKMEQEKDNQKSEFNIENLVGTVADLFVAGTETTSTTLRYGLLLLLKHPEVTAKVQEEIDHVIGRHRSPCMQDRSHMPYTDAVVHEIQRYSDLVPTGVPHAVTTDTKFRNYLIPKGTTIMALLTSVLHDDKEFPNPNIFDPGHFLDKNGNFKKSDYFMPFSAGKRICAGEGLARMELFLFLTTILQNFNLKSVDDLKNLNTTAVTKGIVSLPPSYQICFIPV
# Procedure: (§1) The potential of tepotinib and MSC2571109A to inhibit CYP450 enzymes CYP1A2, 2A6, 2B6, 2C8, 2C9, 2C19, 2D6, 2E1, and 3A4/5 in vitro was evaluated using CYP-catalyzed reactions in pooled mixed-gender human liver microsomes using specific substrates and liquid chromatography/tandem mass spectrometry (LC–MS/MS) readouts. […] Testosterone 6β-hydroxylation was assessed in the MSC2571109A study. Assessments of mechanism-based inhibition of the above listed CYP450 enzymes were conducted after pre-incubation of the microsomes with tepotinib or MSC2571109A. A brief summary of the incubation methods, including details of substrates used for the other CYP enzymes (which are not pertinent to this article) are presented in Online Resource 1. The LC–MS/MS-based methods used were consistent with those previously described in the literature.
# CYP2B6 = target: T2, CYP2B6 (Homo sapiens, UniProt P20813); assay: CYP2B6 inhibition in pooled human liver microsomes; format: in vitro ADME; settings: Efavirenz 8-hydroxylation; for inhibition at 49.5 µM: both sexes, human, pooled human liver microsomes, probe efavirenz
# T2 construct: pooled mixed-gender human liver microsomes; from tissue; host or cells: pooled mixed-gender human liver microsomes
# T2 sequence (P20813 1-491): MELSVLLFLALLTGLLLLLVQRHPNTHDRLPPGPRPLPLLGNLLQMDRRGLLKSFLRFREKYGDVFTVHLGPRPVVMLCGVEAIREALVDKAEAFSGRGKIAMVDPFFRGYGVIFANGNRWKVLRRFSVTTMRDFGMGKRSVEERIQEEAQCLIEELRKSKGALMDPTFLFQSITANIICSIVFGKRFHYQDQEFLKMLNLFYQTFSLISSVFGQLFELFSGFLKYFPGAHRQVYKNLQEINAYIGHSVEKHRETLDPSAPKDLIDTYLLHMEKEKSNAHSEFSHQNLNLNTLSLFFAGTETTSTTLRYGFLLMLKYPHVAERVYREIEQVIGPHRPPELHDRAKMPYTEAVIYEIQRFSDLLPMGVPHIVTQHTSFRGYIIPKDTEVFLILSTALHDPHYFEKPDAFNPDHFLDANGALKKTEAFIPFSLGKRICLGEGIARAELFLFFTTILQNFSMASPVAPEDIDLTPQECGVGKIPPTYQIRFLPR
# Procedure: as §1
# CYP3A4/5 = CYP3A4/5 inhibition in pooled human liver microsomes; format: in vitro ADME; settings: for inhibition at 49.5 µM / pIC50: human, microsomes
# Procedure: as §1, with “Testosterone 6β-hydroxylation was assessed in the MSC2571109A study.” left out
# P-gp = P-gp (Homo sapiens, UniProt P08183); assay: P-gp inhibition in Caco-2 cell monolayers with [3H]-digoxin; format: in vitro ADME; set-up: An in vitro assay in Caco-2 cell monolayers; endogenous in cells; host or cells: Caco-2
# Procedure: An in vitro assay in Caco-2 cell monolayers was performed to assess the P-gp inhibition potential of tepotinib (Online Resource 4). [^3H]-digoxin was used as a P-gp probe substrate. Control experiments were conducted to ensure acceptable performance of the cells. The extent of inhibition in these studies, expressed as IC50, was determined by quantification of the transport or uptake of ^3H-digoxin in Caco-2 cells in the absence and presence of tepotinib.
# To assess the potential clinical risk and to identify whether an in vivo DDI study was required, drug concentration ([I])/IC50 ratios and/or R-values were calculated considering the mean human steady state exposure of parent drug and its metabolite, observed at the clinical dose of 500 mg tepotinib. Results were assessed according to both FDA and EMA criteria.
# [1] = human mass balance study; cited from earlier work
# [2] = Safety and tolerability in the two clinical studies; format: in vivo, human; settings: healthy participants; tepotinib 500 mg once daily, both studies
# Procedure: Safety and tolerability were also assessed throughout each study.
# [3] = Tepotinib steady-state pharmacokinetics at the clinical dose; settings: human, in vivo, oral, 500 mg
# [4] = 30-min preincubation, read-out: Time-dependent inhibition IC50
# [5] = human liver microsomes, zero-minute preincubation, read-out: Direct inhibition IC50
# [6] = P-gp, clinical dose of 500 mg once daily
# Chain of P-gp (P08183 whole entry): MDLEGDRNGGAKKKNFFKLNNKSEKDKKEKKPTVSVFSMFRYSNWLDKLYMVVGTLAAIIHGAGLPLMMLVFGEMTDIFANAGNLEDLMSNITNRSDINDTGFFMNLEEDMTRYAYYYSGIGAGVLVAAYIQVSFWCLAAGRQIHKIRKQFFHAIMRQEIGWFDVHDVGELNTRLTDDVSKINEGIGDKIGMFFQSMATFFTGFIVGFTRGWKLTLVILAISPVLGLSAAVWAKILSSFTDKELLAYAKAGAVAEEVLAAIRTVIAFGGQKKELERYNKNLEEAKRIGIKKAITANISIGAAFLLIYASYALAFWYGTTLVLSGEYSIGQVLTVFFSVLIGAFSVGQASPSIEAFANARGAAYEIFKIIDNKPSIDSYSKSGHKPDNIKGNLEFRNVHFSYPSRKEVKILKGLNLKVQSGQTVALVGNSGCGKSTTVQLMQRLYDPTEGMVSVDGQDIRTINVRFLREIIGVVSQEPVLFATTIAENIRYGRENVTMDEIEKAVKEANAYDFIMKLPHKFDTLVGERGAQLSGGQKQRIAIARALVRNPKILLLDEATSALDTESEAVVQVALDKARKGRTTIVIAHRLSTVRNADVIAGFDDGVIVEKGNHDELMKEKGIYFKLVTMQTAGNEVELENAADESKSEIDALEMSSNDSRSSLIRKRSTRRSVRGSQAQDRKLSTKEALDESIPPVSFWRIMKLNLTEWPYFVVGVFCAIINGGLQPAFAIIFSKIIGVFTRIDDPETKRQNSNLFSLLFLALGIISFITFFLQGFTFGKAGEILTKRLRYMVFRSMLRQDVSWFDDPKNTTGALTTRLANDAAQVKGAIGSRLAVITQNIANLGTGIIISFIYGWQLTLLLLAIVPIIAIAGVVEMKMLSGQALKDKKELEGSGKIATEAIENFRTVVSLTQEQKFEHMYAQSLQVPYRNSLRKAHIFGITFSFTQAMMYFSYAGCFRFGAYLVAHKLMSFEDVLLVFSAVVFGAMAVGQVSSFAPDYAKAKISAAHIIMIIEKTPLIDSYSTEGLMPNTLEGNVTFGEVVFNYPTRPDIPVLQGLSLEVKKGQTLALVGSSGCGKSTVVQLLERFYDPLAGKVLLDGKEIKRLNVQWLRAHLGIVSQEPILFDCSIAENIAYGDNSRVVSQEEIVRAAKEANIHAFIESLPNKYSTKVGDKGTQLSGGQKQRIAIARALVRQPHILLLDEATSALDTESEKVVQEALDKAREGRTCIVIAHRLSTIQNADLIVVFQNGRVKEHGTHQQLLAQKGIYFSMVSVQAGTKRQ
smiles,measurement,setting,value
CN1CCC(COc2cnc(-c3cccc(Cn4nc(-c5cccc(C#N)c5)ccc4=O)c3)nc2)CC1 [tepotinib],Potential for time-dependent inhibition,CYP2C8,Little or No
same,pIC50,CYP2C8; [4],4.89
same,Type of inhibition,CYP2C8; direct inhibition,Mixed
same,inhibition at 49.5 µM,"CYP2C8; both sexes, human, pooled human liver microsomes, probe amodiaquine, zero-minute preincubation, 49.5 µM, read-out: Direct inhibition, maximum inhibition at 49.5 µM",86%
same,pKi,"CYP2C8; human liver microsomes, read-out: Direct inhibition Ki",4.96
same,pIC50,CYP2C8; [5],4.80
same,Potential for time-dependent inhibition,CYP2B6,Little or No
same,pIC50,CYP2B6; [4],4.36
same,inhibition at 49.5 µM,"CYP2B6; 30-min preincubation, read-out: Time-dependent inhibition, maximum inhibition at 49.5 µM",52%
same,inhibition at 49.5 µM,"CYP2B6; zero-minute preincubation, read-out: Direct inhibition, maximum inhibition at 49.5 µM",34%
same,pIC50,CYP2B6; [5],< 4.31
same,Potential for time-dependent inhibition,CYP3A4/5; Midazolam 6β-hydroxylation,Little or No
same,Potential for time-dependent inhibition,CYP3A4/5; Nifedipine oxidation,Little or No
same,Potential for time-dependent inhibition,CYP3A4/5; Testosterone 1’-hydroxylation,Little or No
same,inhibition at 49.5 µM,"CYP3A4/5; both sexes, Midazolam 6β-hydroxylation, 30-min preincubation, read-out: Time-dependent inhibition, maximum inhibition at 49.5 µM",60%
same,pIC50,"CYP3A4/5; both sexes, Midazolam 6β-hydroxylation, 30-min preincubation, read-out: Time-dependent inhibition IC50",4.48
same,inhibition at 49.5 µM,"CYP3A4/5; both sexes, Midazolam 6β-hydroxylation, zero-minute preincubation, read-out: Direct inhibition, maximum inhibition at 49.5 µM",66%
same,inhibition at 49.5 µM,"CYP3A4/5; both sexes, Nifedipine oxidation, 30-min preincubation, read-out: Time-dependent inhibition, maximum inhibition at 49.5 µM",71%
same,pIC50,"CYP3A4/5; both sexes, Nifedipine oxidation, 30-min preincubation, read-out: Time-dependent inhibition IC50",4.60
same,inhibition at 49.5 µM,"CYP3A4/5; both sexes, Nifedipine oxidation, zero-minute preincubation, read-out: Direct inhibition, maximum inhibition at 49.5 µM",64%
same,inhibition at 49.5 µM,"CYP3A4/5; both sexes, Testosterone 1’-hydroxylation, 30-min preincubation, read-out: Time-dependent inhibition, maximum inhibition at 49.5 µM",59%
same,pIC50,"CYP3A4/5; both sexes, Testosterone 1’-hydroxylation, 30-min preincubation, read-out: Time-dependent inhibition IC50",4.43
same,inhibition at 49.5 µM,"CYP3A4/5; both sexes, Testosterone 1’-hydroxylation, zero-minute preincubation, read-out: Direct inhibition, maximum inhibition at 49.5 µM",62%
same,pIC50,"CYP3A4/5; both sexes, human liver microsomes, Midazolam 6β-hydroxylation, zero-minute preincubation, read-out: Direct inhibition IC50",4.60
same,pIC50,"CYP3A4/5; both sexes, human liver microsomes, Nifedipine oxidation, zero-minute preincubation, read-out: Direct inhibition IC50",4.59
same,pIC50,"CYP3A4/5; both sexes, human liver microsomes, Testosterone 1’-hydroxylation, zero-minute preincubation, read-out: Direct inhibition IC50",4.51
same,pIC50,"CYP3A4/5; both sexes, in vitro, abstract summary, read-out: IC50, direct or time-dependent CYP3A4/5 inhibition",< 4.82
same,pKi,"CYP3A4/5; both sexes, human liver microsomes, read-out: Ki, CYP3A4/5-catalyzed probe substrate reactions",≤ 4.96
same,Direct inhibition of CYP3A4/5 (in words),CYP3A4/5; in vitro,weak direct inhibitors
same,pIC50,"P-gp; Caco-2 cell monolayers, [3H]-digoxin probe substrate, read-out: Apparent IC50, P-gp inhibition",6.39
same,[I]/IC50 ratio (intestinal),P-gp; [6],8917
same,[I]/IC50 ratio (systemic),P-gp; [6],0.39
same,Share of total circulating radioactivity in plasma,[1],55%
same,Safety and tolerability (in words),[2],safe and well tolerated
same,Tmax,[3]; Median steady state Tmax,8 h
same,Tmax,"[3]; Steady state Tmax, range",2 to 24 h
